Test results from US12441716B2, “Compositions and methods for increasing muscle mass and oxidative metabolism” (The Regents of the University of California, priority 2019, dated 2025).

Key:
[1] = system: endogenous Myosin light chain-2 (Myl2) expression in C2C12 cells; assay: Myl2 expression in C2C12 cells, RT-PCR normalized to GAPDH; type: cell-based; details: for Myl2 Relative expression/Gapdh at 2.5 μM: C2C12 cells, relative to GAPDH house-keeping control gene
Protocol: Bioactivity data of AMBMP analogs 1-6, 17, 18, and 25. Dose dependent effect of AMBMP analogs 1-6, 17, 18, and 25 on endogenous Myosin light chain-2 (Myl2) expression in C2C12 cells is shown in FIG. 16 A.
Effect of 2.5 μM AMBMP analog 1-6, 8, 17, 21, 25, 38, 39, and 40 on Myl2 expression relative to GAPDH (house-keeping control gene) in C2C12 cells is shown in Table 1. Myl2 is a marker of CaMKIIβ activity.
AMBMP analog 40 was tested in C2C12 myogenic cells for its ability to induce expression of Myl2. C2C12 cells were treated with AMBMP or AMBMP analog 40 for 48 hrs (concentrations are indicated on the graph); DMSO was used as a negative control. Expression of Myl2 was assessed by RT-PCR and normalized to GAPDH as a house-keeping control gene.

[2] = log P (partition coefficient between organic and aqueous phase); type: physicochemical
From the text: It has been determined that compounds having a chemical structure of Formula I and/or Formula VII, or a pharmaceutically acceptable salt or solvate thereof, can increase muscle mass and muscle function. These chemicals can be effective in treating muscular dystrophy, such as limb girdle muscular dystrophy type 2A/R1/D1. Not to be bound by theory, it is believed that these compounds may provide their biological effect by over-riding the CAMKII signaling block by activating CaMKII. Accordingly, these can increase muscle size, mitochondrial complex I and II activity, expression of genes that comprise the slow fiber phenotype and running performance. Embodiments of the current disclosure is directed to compositions and methods of use for compounds having a chemical structure of Formula I and/or Formula VII, or a pharmaceutically acceptable salt or solvate thereof, that show similar or higher activity on CAMKII signaling as of AMBMP, but are less toxic and/or more soluble than AMBMP (Formula VI). […] One or more compounds having a chemical structure of Formula I and/or Formula VII, can have a EC50 potency of <1 uM on endogenous myosin light chain 2 (Myl2) promoter in C2C12 cells. The compounds can have a solubility >10 uM in water at standard temperature and pressure. […] Toxicity can be measured as a dose dependent effect of the compounds on cell death of C2C12 cells.

CaMKIIβ [3] = target: T1, CaMKIIβ (Mus musculus, UniProt P28652); assay: CaMKIIβ activation in mouse skeletal muscles after injection, western blot with anti-phospho CaMKIIβ antibody; type: in vivo; details: mice, 10 mg/kg intraperitoneally; muscles collected 2, 4 and 6 hrs after injection; DMSO control
T1 construct: from tissue; host or cells: tissue of treated C3KO and WT mice
Protocol: Mice were injected intraperitoneally with 10 mg/kg of AMBMP analog 3. Skeletal muscles were collected at 2, 4 and 6 hrs after injection. Mice injected with DMSO were used as a control group.

C2C12 myogenic cells = assay: Tolerance of C2C12 myogenic cells to compound; type: cell-based; details: data not shown
C3KO mice [4] = assay: Muscle fiber cross-sectional area in treated C3KO mice; type: in vivo; details: 7.5 mg/kg/day for 14 days, i.p. or subQ injection
Protocol: (§1) Average cross-sectional area (CSA) measured in muscle cross sections after staining for fiber type. […] A) C3KO mice i.p. injected with AMBMP hydrochloride (7.5 mg/kg/day) for 14 days. B) C3KO mice treated AMBMP hydrochloride (7.5 mg/kg/day) for 14 days by subcutaneous (subQ) injection.

C3KO mice [5] = assay: Mitochondrial function / mitochondrial content (NADH staining) in muscles of treated C3KO mice; type: in vivo
Protocol: as §1
One set of C3KO mice were i.p. injected with AMBMP hydrochloride (7.5 mg/kg/day) for 14 days, another set of C3KO mice were i.p. injected with AMBMP hydrochloride (15 mg/kg/day) for 14 days and a control set of C3KO mice were not treated with AMBMP. Percent of total fibers with high mitochondrial content and intermediate mitochondrial content increased with AMBMP treatment in a dose dependent manner, and percent of total fibers with low mitochondrial content decreased with AMBMP treatment in a dose dependent manner (FIG. 12A). […] Quantification of NADH staining on plantaris muscles from AMBMP-treated mice (either 7.5 or 15 mg/kg, for 2 weeks (wks)) shown as a ratio of FOG:FG fibers. *p<0.05.

C3KO mice [6] = assay: Exercise performance after endurance training in C3KO mice; type: in vivo; details: i.p. 7.5 mg/kg/day for 14 days, 3-week endurance training
From the text: Shown in FIG. 13, AMBMP treatment leads to improved exercise performance. Mice were subjected to endurance training over a 3-week period while being treated. Exercise performance was compared between pre and post exercise condition. Wild type (WT) mice were not treated with AMBMP.

CaMKIIβ [7] = target: T1, CaMKIIβ; assay: CaMKIIβ activity in mice treated for 2 weeks; type: in vivo; details: i.p. 7.5 mg/kg/day for 2 weeks
From the text: (§2) Shown in FIG. 14, C3KO mice treated with AMBMP have normalized CaMKIIβ activity, but AKT or AMPK signaling are not affected.

AKT = AKT signaling in treated C3KO mice; type: in vivo; details: i.p. 7.5 mg/kg/day for 2 weeks
From the text: as §2

AMPK = AMPK signaling in treated C3KO mice; type: in vivo; details: i.p. 7.5 mg/kg/day for 2 weeks
From the text: as §2

Capn3−/− muscles = assay: Percent slow myosin heavy chain positive fibers in soleus of calpainopathy mice; type: in vivo; details: daily for 2 wks at 30 mg/kg subQ

T1 sequence (P28652 whole entry): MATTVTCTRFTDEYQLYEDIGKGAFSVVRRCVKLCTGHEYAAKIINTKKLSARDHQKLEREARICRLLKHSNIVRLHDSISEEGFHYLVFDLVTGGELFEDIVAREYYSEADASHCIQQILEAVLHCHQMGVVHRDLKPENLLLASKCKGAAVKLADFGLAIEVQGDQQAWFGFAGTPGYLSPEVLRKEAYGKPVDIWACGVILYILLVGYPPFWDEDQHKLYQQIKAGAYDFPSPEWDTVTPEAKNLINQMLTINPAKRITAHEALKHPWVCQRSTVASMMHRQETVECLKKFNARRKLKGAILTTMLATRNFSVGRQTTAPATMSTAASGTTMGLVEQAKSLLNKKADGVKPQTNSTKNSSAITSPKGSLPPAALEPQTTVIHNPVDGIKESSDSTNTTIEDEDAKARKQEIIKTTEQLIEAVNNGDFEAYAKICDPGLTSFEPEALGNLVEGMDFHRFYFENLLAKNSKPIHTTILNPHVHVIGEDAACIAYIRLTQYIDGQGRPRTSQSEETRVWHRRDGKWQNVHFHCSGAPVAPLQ

Nc1nc(NCc2ccc3c(c2)OCO3)cc(-c2cccc(O)c2)n1 [AMBMP Analog 3, 3-(2-amino-6-((benzo[d][1,3]dioxol-5-ylmethyl)amino)pyrimidin-4-yl)phenol]
Myl2 Relative expression/Gapdh at 2.5 μM [1]: 0.4 | logP [2]: 2.47 | phospho-CaMKIIβ (P-CaMK) in skeletal muscles (CaMKIIβ [3]): CaMKIIβ activation

CCOc1cccc(-c2cc(NCc3ccc4c(c3)OCO4)nc(N)n2)c1 [AMBMP Analog 4]
Myl2 Relative expression/Gapdh at 2.5 μM [1]: 2

CCCOc1cccc(-c2cc(NCc3ccc4c(c3)OCO4)nc(N)n2)c1 [AMBMP Analog 5]
Myl2 Relative expression/Gapdh at 2.5 μM [1]: 0.6

CC(C)(C)Oc1cccc(-c2cc(NCc3ccc4c(c3)OCO4)nc(N)n2)c1 [AMBMP Analog 6]
Myl2 Relative expression/Gapdh at 2.5 μM [1]: 1.2

Nc1nc(NCc2ccc3c(c2)OCO3)cc(-c2ccc(OC(F)(F)F)cc2)n1 [AMBMP Analog 17]
Myl2 Relative expression/Gapdh at 2.5 μM [1]: 0.2

COc1cc(O)cc(-c2cc(NCc3ccc4c(c3)OCO4)nc(N)n2)c1 [AMBMP Analog 40, 3-(2-amino-6-((benzo[d][1,3]dioxol-5-ylmethyl)amino)pyrimidin-4-yl)-5-methoxyphenol]
Myl2 Relative expression/Gapdh at 2.5 μM [1]: 1.2 | increase of Myl2 expression ([1]; C2C12 myogenic cells treated 48 hrs (1.25 μM, 5 μM), RT-PCR normalized to GAPDH, DMSO negative control): 2.5-2.9 fold | tolerance by the cells compared to AMBMP (C2C12 myogenic cells): better tolerated

COc1cccc(-c2cc(NCc3ccc4c(c3)OCO4)nc(N)n2)c1.Cl [AMBMP hydrochloride]
cross-sectional area of slow fibers (C3KO mice [4]): significantly increased | cross-sectional area, both fiber types (C3KO mice [4]): increase | mitochondrial function compared to control (C3KO mice [5]; i.p. 7.5 mg/kg/day for 14 days): improved mitochondrial function | mitochondrial content (C3KO mice [5]; i.p. 7.5 or 15 mg/kg/day for 14 days, plantaris muscles): increased mitochondrial content in a dose dependent manner | exercise performance pre vs post endurance training (C3KO mice [6]): show a training effect | CaMKIIβ activity over untreated control (CaMKIIβ [7]; C3KO mice): increased CaMKIIβ activity | CaMKIIβ activity over untreated control (CaMKIIβ [7]; WT mice): increased CaMKIIβ activity | AKT signaling (AKT): without impacting | AMPK signaling (AMPK): without impacting

COc1cccc(-c2cc(NCc3ccc4c(c3)OCO4)nc(N)n2)c1 [AMBMP]
Myl2 Relative expression/Gapdh at 2.5 μM [1]: 1.4 | % slow myosin heavy chain positive fibers in soleus (Capn3−/− muscles): Statistically significant shift
